Legend:
Experiment in all cases: CTG-3D luminescence at 96 h relative to day-0 seeding control (ratio to day 0); higher = more growth / less cytotoxicity; PDxO 3D drug screen, 96 h, CTG-3D normalised to day-0 seeding control.
HCI-015 = test system: HCI-015 (organoid from a triple-negative breast cancer xenograft)
MDA-MB-231 = test system: MDA-MB-231
HCI-016 = test system: HCI-016 (organoid from a triple-negative breast cancer xenograft)
HCI-012 = test system: HCI-012 (organoid from a breast cancer xenograft)
HCI-005.E2 = test system: HCI-005.E2 (organoid from a breast cancer xenograft with a HER2-positive history)
HCI-017.E2 = test system: HCI-017.E2 (organoid from an ER-positive breast cancer xenograft)

NC(=O)c1cccc2cn(-c3ccc([C@@H]4CCCNC4)cc3)nc12 [niraparib]
CTG-3D luminescence at 96 h
Settings | 12.5 pM | 0.00025 µM | 0.005 µM | 0.1 µM | 1 µM | 10 µM | 100 µM | 625 fM
HCI-012, days in culture: 143 | 2.27 | 2.44 | 2.4 | 2.56 | 1.52 | 0.467 | -0.00164 | 1.73
HCI-012, days in culture: 162 | 2.37 | 2.45 | 2.2 | 2.6 | 0.841 | 0.415 | -0.00213 | 3.12
HCI-012, days in culture: 201 | 3.14 | 2.4 | 1.89 | 1.81 | 1.95 | 0.307 | -0.207 | 1.71
HCI-015, days in culture: 172 | 2.77 | 1.86 | 2.64 | 1.3 | 0.847 | 0.199 | -0.107 | 2.29
HCI-015, days in culture: 191 | 2.28 | 1.35 | 1.72 | 1.06 | 1.12 | 0.29 | -0.000426 | 1.59
HCI-015, days in culture: 218 | 2.06 | 1.35 | 1.71 | 1.25 | 0.615 | -0.0786 | -0.35 | 1.94
HCI-016, days in culture: 153 | 2.7 | 1.98 | 2.84 | 1.82 | 0.989 | 0.444 | -0.00489 | 2.67
HCI-016, days in culture: 172 | 2.42 | 2.33 | 2.02 | 1.56 | 1.36 | 0.272 | -0.00828 | 1.66
HCI-016, days in culture: 190 | 1.64 | 1.64 | 2.08 | 1.58 | 0.974 | 0.189 | -0.105 | 1.59
HCI-016, days in culture: 199 | 2.02 | 2.05 | 1.96 | 1.54 | 0.655 | 0.118 | -0.0141 | 2.02
HCI-017.E2, days in culture: 85 | 2.25 | 2.22 | 2.21 | 2.63 | 2.09 | 1.81 | 0.00236 | 1.95

CTG-3D luminescence at 96 h
Settings | 12.5 pM | 0.00025 µM | 0.005 µM | 0.1 µM | 1 µM | 10 µM | 100 µM | 625 fM
HCI-005.E2 | 1.22 | 1.61 | 1.3 | 1.62 | 1.51 | 1.05 | -0.00126 | 1.35
HCI-017.E2 | 1.823 | 1.66 | 1.89 | 1.61 | 1.48 | 1.58 | 0.00319 | 1.94
MDA-MB-231 | 4.51 | 4.46 | 4.51 | 4.46 | 4.41 | 3.96 | 0.00282 | 4.58
